US6924391B2, “Alpha-amino,-thio,-oxo substituted ketones as phospholipase inhibitors” (Bristol-Myers Squibb Company, priority 2000, dated 2005)
Structures can show the parent of a compound that is named as a salt.

SMILES: COCC(=O)C(F)(F)Cc1ccc(OCCN(C)CC(c2ccc(Cl)cc2)c2ccc(Cl)cc2)cc1 (as salt: hydrochloride) [Example 9, 4-[4-[2-[N-[2-Bis-(4-chlorophenyl)ethyl]-N-methylamino]ethoxy]phenyl]-2,2-difluoro-1-methoxy-2-butanone]
- melting point: 53 to 62 °C
